According to US11465965B2, “Double-headed protease inhibitor” (UBE INDUSTRIES, LTD., priority 2017, dated 2022):
Where a name gives a salt, the structure may show the parent alone.

Legend:
DIO mouse = assay: Anti-obesity effect test using DIO mouse; format: in vivo; conditions: 336 h, DIO mice, vs vehicle group, read-out: Weight loss rate; for inhibition in vivo at 50 mg/kg: oral 50 mg/kg once daily for 2 weeks
Description: (Test Example 4): Anti-Obesity Effect Test Using DIO Mouse
Diet-induced obesity (DIO) mice (D-12492 diet, male, C57BL-DIO, 26 to 28-week old) were orally administered with a 0.5 W/V % methylcellulose suspension comprising each test compound (Compound administration group, 5 or 6 mice/group) or a 0.5 W/V % methylcellulose suspension (Compound non-administration group (Vehicle group), 6 mice/group) once daily for 2 weeks. Weight loss rate was calculated by the following equation. Weight loss rate (%) of each Compound administration group−(1−average weight at the last day of the test of each Compound administration group/average weight at the last day of the test of Vehicle group)×100

[1] = Rat pharmacokinetic (PK) test (plasma concentration after oral administration); conditions: male, SD
Description: Each test compound was suspended in a 0.5 W/V % methylcellulose 400 solution to prepare a suspension, and the resulting suspension was orally administered to a male SD rat of 7 to 8-week old (weight: 180 to 250 g). After 0.25, 0.5, 1, 2, 4, 8, and 24 hour(s) of the administration of each test compound, blood (EDTA-added blood) was collected from jugular vein under isoflurane inhalation anesthesia. […] To the resulting blood plasma was added acetonitrile, a mixed solvent of acetonitrile and water (1:1 (V/V)), or a mixed solvent of acetonitrile and 0.1 M hydrochloric acid (1:1 (V/V)), then the resulting mixture was mixed at 750 rpm for 3 minutes in a shaker, and subjected to centrifugal separation at 3700 rpm for 2 minutes in a centrifuge to remove proteins. The resulting sample was subjected to LC (liquid chromatography)/MS (mass spectrometry) measurement under the following measurement conditions.
Each compound concentration in blood plasma at each time of blood collection was calculated according to the internal standard method, and, area under the plasma concentration vs. time curve (AUCall (Area Under Curve)) was calculated according to the trapezoidal method.
The LC and MS systems used in the present test are as follows.
LC: LC20 or LC30 HPLC system manufactured by Shimadzu Corporation
Column: Phenomenex Kinetex C18 (50×2.1 mm, 2.6 μm)
Column temperature: 40° C.
Mobile phase A: aqueous solution with 0.1% formic acid, Mobile phase B: 50% acetonitrile/methanol solution with 0.1% formic acid

[2] = molecular target: T1, Human recombinant enteropeptidase (Homo sapiens, UniProt P98073); assay: Human enteropeptidase inhibition test; format: biochemical; conditions: 20 minutes after reaction start, read-out: Inhibition rate (enteropeptidase); for inhibition at 0.01 µM: compound concentration 10 nM; for inhibition at 0.1 µM: compound concentration 100 nM; for inhibition at 0.001 µM: compound concentration 1 nM
T1 construct: purchased BIO Vision Inc. 7529-50
T1 sequence (P98073 whole entry): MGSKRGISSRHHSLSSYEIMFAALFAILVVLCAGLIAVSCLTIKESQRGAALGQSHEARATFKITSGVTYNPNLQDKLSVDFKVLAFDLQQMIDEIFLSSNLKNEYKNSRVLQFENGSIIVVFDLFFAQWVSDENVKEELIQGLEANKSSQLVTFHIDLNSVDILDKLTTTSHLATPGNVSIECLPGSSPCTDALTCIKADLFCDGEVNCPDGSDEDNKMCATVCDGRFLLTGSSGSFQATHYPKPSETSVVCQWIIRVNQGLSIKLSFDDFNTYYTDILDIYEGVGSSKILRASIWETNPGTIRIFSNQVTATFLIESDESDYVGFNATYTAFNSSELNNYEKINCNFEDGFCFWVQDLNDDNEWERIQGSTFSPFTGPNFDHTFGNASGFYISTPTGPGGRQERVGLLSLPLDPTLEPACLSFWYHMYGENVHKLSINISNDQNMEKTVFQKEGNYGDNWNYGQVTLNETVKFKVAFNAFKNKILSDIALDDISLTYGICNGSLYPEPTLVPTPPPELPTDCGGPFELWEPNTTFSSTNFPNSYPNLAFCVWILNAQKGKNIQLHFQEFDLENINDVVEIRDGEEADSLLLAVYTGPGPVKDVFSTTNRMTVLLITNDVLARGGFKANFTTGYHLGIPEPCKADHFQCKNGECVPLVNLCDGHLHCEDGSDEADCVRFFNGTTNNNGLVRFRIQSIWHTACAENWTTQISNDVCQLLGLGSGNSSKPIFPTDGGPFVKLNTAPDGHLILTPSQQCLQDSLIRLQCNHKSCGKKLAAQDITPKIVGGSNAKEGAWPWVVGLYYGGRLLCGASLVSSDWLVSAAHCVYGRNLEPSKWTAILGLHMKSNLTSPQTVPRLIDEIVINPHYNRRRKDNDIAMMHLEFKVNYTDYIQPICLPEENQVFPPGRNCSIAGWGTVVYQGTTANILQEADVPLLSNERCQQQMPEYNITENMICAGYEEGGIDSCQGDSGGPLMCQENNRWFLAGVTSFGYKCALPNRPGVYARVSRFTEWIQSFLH
Description: (Test Example 1): Human Enteropeptidase Inhibition Test
Human recombinant enteropeptidase (manufactured by BIO Vision Inc., catalog no.: 7529-50) was diluted with an assay buffer (50 mM tricine (pH8.0), 0.01 W/V % Tween 20, 10 mM CaCl2) to prepare an […] enzyme solution. Then, 5FAM-Abu-Gly-Asp-Asp-Lys-Ile-Val-Gly-Gly-Lys (CPQ2)-Lys-Lys-NH2 (manufactured by CHINESE PEPTIDE COMPANY, purity: 94.5) was diluted with the assay buffer to prepare a 1.5 μM substrate solution. Each test compound was dissolved into DMSO, then diluted with the assay buffer 100 times, and further appropriately diluted with an assay buffer comprising 1% DMSO to prepare each compound solution. 10 μL of the compound solution, 15 μL of the assay buffer, and 50 μL of the substrate solution were added to a 96 well black plate (manufactured by Thermo Fisher Scientific Inc., code no.: 9502867), mixed, then 25 μL of the enzyme solution was added thereto, and mixed to start the reaction. Fluorescence intensities at excitation wavelength 485 nm and fluorescence wavelength 535 nm were measured by using a fluorescence plate reader (Flex station 3) (Test compound addition group). Also, the same reaction as described above except for not adding each test compound was carried out (Test compound non-addition group). Additionally, the same reaction as described above except for not adding each test compound and the enzyme was carried out (Control group). Inhibition rate was calculated by the following equation using fluorescence intensity after 20 minutes of reaction start. Inhibition rate (%)=(1−(fluorescence intensity of Test compound addition group−fluorescence intensity of Control group)÷(fluorescence intensity of Test compound non-addition group−fluorescence intensity of Control group))×100

[3] = molecular target: T2, Human recombinant trypsin (Homo sapiens, UniProt P07477); assay: Human trypsin inhibition test; format: biochemical; conditions: 20 minutes after reaction start, read-out: Inhibition rate (trypsin); for inhibition at 0.01 µM: compound concentration 10 nM; for inhibition at 0.1 µM: compound concentration 100 nM; for inhibition at 0.001 µM: compound concentration 1 nM
T2 construct: purchased Wako Pure Chemical Industries, Ltd. 206-17171
Description: (Test Example 2): Human Trypsin Inhibition Test
Human recombinant trypsin (manufactured by Wako Pure Chemical Industries, Ltd., code no.: 206-17171) was diluted with an assay buffer (0.1 M Tris-HCl (pH8.0), 0.15 M NaCl, 10 mM CaCl2, 0.05% Brij35) to prepare a 10 ng/mL enzyme solution. Then, Boc-Phe-Ser-Arg-MCA (manufactured by PEPTIDE INSTITUTE, INC., code no.: 3107-v) was diluted with the assay buffer to prepare a 40 μM substrate solution. Each test compound was dissolved into DMSO, then diluted with the assay buffer 100 times, and further appropriately diluted with an assay buffer comprising 1% DMSO to prepare each compound solution. 10 μL of the compound solution, 15 μL of the assay buffer, and 50 μL of the substrate solution were added to a 96 well black plate (manufactured by Thermo Fisher Scientific Inc., code no.: 9502867), mixed, and then 25 μL of the enzyme solution was added thereto, and mixed to start the reaction. Fluorescence intensities at excitation wavelength 355 nm and fluorescence wavelength of 460 nm were measured by using a fluorescence plate reader (Flex station 3) (Test compound addition group). Also, the same reaction as described above except for not adding each test compound was carried out (Test compound non-addition group). Additionally, the same reaction as described above except for not adding each test compound and the enzyme was carried out (Control group). Inhibition rate was calculated by the following equation using fluorescence intensity after 20 minutes of reaction start. Inhibition rate (%)=(1−(fluorescence intensity of Test compound addition group−fluorescence intensity of Control group)[…](fluorescence intensity of Test compound non-addition group−fluorescence intensity of Control group))×100

| SMILES | inhibition at 0.01 µM [2] | inhibition at 0.1 µM [2] | inhibition at 0.01 µM [3] | inhibition at 0.1 µM [3] | other results |
| --- | --- | --- | --- | --- | --- |
| Cl.N=C(N)Nc1ccc(C(=O)Oc2ccc(CNS(=O)(=O)N(CCOCCOCCOCCN([C@@H](CC(=O)O)C(=O)O)S(=O)(=O)NCc3ccc(OC(=O)c4ccc(NC(=N)N)cc4)cc3)[C@@H](CC(=O)O)C(=O)O)cc2)cc1 [3-(c), 2S,16S)-3,15-bis(N-(4-(4-guanidinobenzoyl)oxy)benzyl)sulfamoyl)-6,9,12-trioxa-3,15-diazaheptadecane-1,2,16,17-tetracarboxylic acid hydrochloride] |  |  |  |  | inhibition in vivo at 100 mg/kg (DIO mouse; oral 100 mg/kg once daily for 2 weeks): ≥ 4% |
| Cl.N=C(N)Nc1ccc(C(=O)Oc2ccc(CNS(=O)(=O)N(CCOCCOCCOCCN([C@@H](CC(=O)O)C(=O)O)S(=O)(=O)NCc3ccc(OC(=O)c4ccc(NC(=N)N)cc4)cc3)[C@@H](CC(=O)O)C(=O)O)cc2)cc1 [3-(c)] |  |  |  |  | AUC ([1]; 10 mg/kg): ≤ 0.1 µg·h/mL |
| N=C(N)Nc1ccc(C(=O)Oc2ccc(COC(=O)N(CCCCCCCCCCCCN(C(=O)OCc3ccc(OC(=O)c4ccc(NC(=N)N)cc4)cc3)C(CC(=O)O)C(=O)O)C(CC(=O)O)C(=O)O)cc2)cc1 (centres unmarked) [11-(b), 2,2′-(1,20-bis(4-((4-guanidinobenzoyl)oxy)phenyl 3,18-dioxo-2,19-dioxa-4,17-diazaicosane-4,17-diyl)disuccinic acid trifluoroacetate] | ≥ 50% | ≥ 50% | ≥ 50% | ≥ 50% | AUC ([1]; 9 mg/kg): ≤ 0.1 µg·h/mL |
| N=C(N)Nc1ccc2c(c1)CCCOc1c(cccc1C(=O)N(CCOCCOCCN(C(=O)c1cccc3c1OCCCc1cc(NC(=N)N)ccc1C(=O)O3)[C@@H](CC(=O)O)C(=O)O)[C@@H](CC(=O)O)C(=O)O)OC2=O [20-(d), (2S,13S)-3,12-bis(10-guanidino-13-oxo-6,7,8,13-tetrahydrodibenzo[b,f][1,4]dioxecin-4-carbonyl)-6,9-dioxa-3,12-diazatetradecane-1,2,13,14-tetracarboxylic acid] |  |  |  |  | inhibition in vivo at 50 mg/kg (DIO mouse): ≥ 4% |
| CN(Cc1ccc(OC(=O)c2ccc(NC(=N)N)cc2)cc1)S(=O)(=O)N(CCOCCOCCN([C@@H](CC(=O)O)C(=O)O)S(=O)(=O)N(C)Cc1ccc(OC(=O)c2ccc(NC(=N)N)cc2)cc1)[C@@H](CC(=O)O)C(=O)O [22-(a), (2S,13S)-3,12-bis(N-(4-((4-guanidinobenzoyl)oxy)benzyl)-N-methylsulfamoyl)-6,9-dioxa-3,12-diazatetradecane-1,2,13,14-tetracarboxylic acid trifluoroacetate] | ≥ 50% |  | ≥ 50% | ≥ 50% | inhibition at 0.001 µM [2]: ≥ 50%; inhibition at 0.001 µM [3]: ≥ 50% |
| N=C(N)Nc1ccc(C(=O)Oc2ccc(CNS(=O)(=O)N(CCOCCOCCN(C(CC(=O)O)CC(=O)O)S(=O)(=O)NCc3ccc(OC(=O)c4ccc(NC(=N)N)cc4)cc3)C(CC(=O)O)CC(=O)O)cc2)cc1 [23-(c), 3,3′-(((ethane-1,2-diylbis(oxy))bis(ethane-2,1-diyl))bis((N-(4-((4-guanidinobenzoyl)oxy)benzyl)sulfamoyl)azanediyl))dipentanedioic acid] | ≥ 50% | ≥ 50% | ≥ 50% | ≥ 50% | inhibition at 0.001 µM [3]: ≥ 50% |
| N=C(N)Nc1ccc(C(=O)Oc2ccc(CN(CCOCCOCCN(Cc3ccc(OC(=O)c4ccc(NC(=N)N)cc4)cc3)S(=O)(=O)N[C@@H](CC(=O)O)C(=O)O)S(=O)(=O)N[C@@H](CC(=O)O)C(=O)O)cc2)cc1 [24-(a)] | ≥ 50% | ≥ 50% | ≥ 50% | ≥ 50% | inhibition at 0.001 µM [3]: ≥ 50%; inhibition in vivo at 50 mg/kg (DIO mouse): ≥ 4% |

Now from value to molecule, other results behind:

| inhibition at 0.01 µM [2] | inhibition at 0.1 µM [2] | inhibition at 0.01 µM [3] | inhibition at 0.1 µM [3] | SMILES | other results |
| --- | --- | --- | --- | --- | --- |
| ≥ 50% | ≥ 50% | ≥ 50% | ≥ 50% | N=C(N)Nc1ccc(C(=O)Oc2cccc(CNS(=O)(=O)N(CCOCCOCCN([C@@H](CC(=O)O)C(=O)O)S(=O)(=O)NCc3cccc(OC(=O)c4ccc(NC(=N)N)cc4)c3)[C@@H](CC(=O)O)C(=O)O)c2)cc1 [25-(b), (2S,13S)-3,12-bis(N-(3-((4-guanidinobenzoyl)oxy)benzyl)sulfamoyl)-6,9-dioxa-3,12-diazatetradecane-1,2,13,14-tetracarboxylic acid] | inhibition at 0.001 µM [2]: ≥ 50%; inhibition in vivo at 50 mg/kg (DIO mouse): ≥ 4% |
|  | ≥ 50% |  | ≥ 50% | N=C(N)Nc1ccc(C(=O)Oc2ccc(COC(=O)N[C@@H](CC(=O)O)C(=O)O)cc2)cc1 [Reference Example 31-(b), (5)-2-((((4-((4-guanidinobenzoyl)oxy)benzyl)oxy)carbonyl)amino)succinic acid trifluoroacetate] |  |
|  | ≥ 50% |  | ≥ 50% | N=C(N)Nc1ccc(C(=O)Oc2ccc(COC(=O)NC(CC(=O)O)C(=O)N[C@@H](CC(=O)O)C(=O)O)cc2)cc1 (stereo partly drawn) [Reference Example 41-(b), (2S)-2-(3-carboxy-2-((((4-((4-guanidinobenzoyl)oxy)benzyl)oxy)carbonyl)amino)propaneamine)succinic acid trifluoroacetate] |  |
|  | ≥ 50% |  | ≥ 50% | N=C(N)Nc1ccc(C(=O)Oc2ccc(COC(=O)N(Cc3cccc(C(=O)O)c3)[C@@H](CC(=O)O)C(=O)O)cc2)cc1 [Reference Example 49-(b), (S)-2-(3-carboxybenzyl) (((4-((4-guanidinobenzoyl)oxy)benzyl)oxy)carbonyl)amino)succinic acid trifluoroacetate] |  |
|  | ≥ 50% |  | ≥ 50% | N=C(N)Nc1ccc(C(=O)Oc2ccc(CNS(=O)(=O)N(Cc3cccc(C(=O)O)c3)[C@@H](CC(=O)O)C(=O)O)cc2)cc1 [Reference Example 52-(b), (S)-2-((3-carboxybenzyl)(N-(4-((4-guanidinobenzoyl)oxy)benzyl)sulfamoyl)amino)succinic acid trifluoroacetate] |  |
|  | ≥ 50% |  | ≥ 50% | N=C(N)Nc1ccc(C(=O)Oc2ccc(CNS(=O)(=O)N[C@@H](CC(=O)O)C(=O)O)cc2)cc1 [Reference Example 55-(b), (S)-2-((N-(4-((4-guanidinobenzoyl)oxy)benzyl)sulfamoyl)amino)succinic acid] |  |
|  | ≥ 50% |  | ≥ 50% | N=C(N)Nc1ccc(C(=O)Oc2cccc(CNS(=O)(=O)N[C@@H](CC(=O)O)C(=O)O)c2)cc1 [Reference Example 73-(b), (S)-2-((N-(3-((4-guanidinobenzoyl)oxy)benzyl)sulfamoyl)amino)succinic acid trifluoroacetate] |  |
|  | ≥ 50% |  | ≥ 50% | N=C(N)Nc1ccc(C(=O)Oc2cccc(C(=O)N[C@@H](CC(=O)O)C(=O)O)c2)cc1 [Reference Example 87-(d), (S)-2-(3-((4-guanidinobenzoyl)oxy)benzamide)succinic acid] |  |
